Earlier results on two compounds are cited in patent US20160074380A1, “Treatment Of Neurodegenerative Diseases With Combination Of Laquinimod And Fingolimod” (TEVA PHARMACEUTICAL INDUSTRIES LTD., priority 2014, published 2016).

The subject of this series is mouse-cultured cortical cells. Conditions: pretreatment; Di Menna, 2013; cited from earlier work.

SMILES strings stand for the structures.

Regarding `CCCCCCCCc1ccc(CC[C@](N)(CO)COP(=O)(O)O)cc1` [FTY 720-P, fingolimod-phosphate], the “protection of neurons against NMDA toxicity” value is listed as “protected neurons against NMDA toxicity”.
With `CCCCCCCCCCCCC/C=C/[C@@H](O)[C@@H](N)COP(=O)(O)O` [S1P, sphingosine 1-phosphate], the “protection of neurons against NMDA toxicity” value is on record as “protected neurons against NMDA toxicity”.
